In data set [1] the test system is MDAMB231 lung metastasis. In words: in vivo lung metastasis of luciferase-tagged MDAMB231, IVIS imaging. Also noted: species or system SCID-beige mice. Particulars: siRNA in cationic liposomes twice weekly; for lung metastasis (animals with metastasis / animals), IVIS imaging: week six; for luminescence (luciferase analysis): p<0.05. As for the experimental part: 3 million cells MDAMB231 cancer cells, stably transfected with luciferase, were injected in the mammary fat pad of SCID-beige mice and were randomized into 3 groups: (1) vehicle+scrambled siRNA, (2) vehicle+MLF2 siRNA, and (3) vehicle+RPL39 siRNA, and treated with siRNA packaged liposomes twice weekly for 6 weeks. The mice were injected with D-luciferin every week for 6 weeks to determine lung metastases using IVIS imaging (Perkin Elmer). The primary tumors were removed by week 5 to continue this study without increasing the primary tumor burden to 10% of body weight.
To assess the effects of RPL39 and MLF2 siRNA on lung metastasis, SCID-Beige mice were injected with luciferase-tagged MDAMB231 cells and treated with siRNA against RPL39 or MLF2 packaged in cationic liposomes, twice weekly simultaneously, and then sacrificed at week six.

For data set [2], the system named is BCM2665 xenografts. In words: short-term in vivo siRNA (multistage particle) treatment, BCM2665 patient-derived xenograft. Further details: species or system SCID-Beige mice. To be noted: for tumor volume: BCM2665; for secondary MSFE: BCM2665 xenograft cells, tumors collected after two weeks; for Aldefluor levels: BCM2665 xenografts, reduction not statistically significant. As for the experimental part: FIG. 10A, FIG. 10B, FIG. 10C, and FIG. 10D illustrate the short-term, in vivo treatment of siRNA in triple-negative, patient-derived human cancer in a murine model xenograft, BCM2665. BCM2665 cells were transplanted into cleared mammary fat pad of SCID beige mice (n=9). These tumors were randomized into the same six groups as stated in the preceding figure, and treated in a manner identical to the SUM159 xenografts. […] RPL39 and MLF2 siRNA respectively. […] Data were analyzed by one-way ANOVA, and are plotted as mean±SEM for n=9 replicates; *p<0.05;
(§1) The effect of MLF2 and RPL39 using siRNA packaged in multistage nanoparticles in two different triple negative models were studied. SUM159 and a patient-derived human cancer xenograft (BCM2665) from a primary human breast cancer transplanted in SCID-Beige mice, the test group had 54 mice per xenograft line, and 9 mice per treatment arm. When tumor sizes reached 150 to 300 mm^3, mice were divided into six groups: (1) vehicle-treated, (2) chemotherapy on day 0 with one dose of docetaxel 20 mg/kg by intraperitoneal (i.p.) injection. (3) siRNA against MLF2 packaged in nanoparticles (single injection intravenous (i.v.) on Day 1), (4) combination treatment with docetaxel (20 mg/kg i.p. on Day 1) and siRNA against MLF2 (single injection i.v. on Day 1), (5) siRNA against RPL39 packaged in nanoparticles (single injection i.v. on Day 1), and (6) combination treatment with docetaxel (20 mg/kg i.p. on Day 1) and siRNA against inhibitor […] (single injection iv. on Day 1). The same dose (15 μg siRNA) was used in all experiments. Animals were sacrificed on Day 14. The tumors were harvested and analyzed for downstream effects on BCSC self-renewal using FACS analysis, and MSFE.
(§2) The fraction of BCSCs in the xenograft tumors from the six treatment groups were processed by mincing and digesting the tumors using collagenase type III, for 3 hrs at 37° C. in order to dissociate the tumors into single cells. Changes in CD44+/CD24/Lin− and Aldefluor® were analyzed as described previously (Li et al., 2008). Briefly, cells were stained with primary antibodies antiCD44 labeled APC (dilution 1:10. BD Biosciences), anti-CD24-labeled FITC (dilution 1:10, BD Biosciences), and additionally with H2KD-labeled PE to eliminate all mouse, lineage-positive cells. The cells were incubated in HBSS (Hanks Balanced Salt Solution, GIBCO) for 15 min on ice with 2% FBS for the antibodies and 45 min for Aldefluor® reagent. Following incubation, cells were washed once with HBSS and re-suspended in HBSS supplemented with 2% FBS. […] (PI) was added to the cells for live/dead gating prior to FACS analysis.
(§3) Mammosphere formation efficiency, the in vitro assay for stem cell self-renewal, was performed as described previously (Dontu et al., 2003; Dontu et al., 2005; Li et al., 2008). Single cells were plated in ultra-low attachment plates (Corning, Acton, Mass., USA) at the density 40,000 viable cells/mL for BCM2665 in primary culture, and at the density 10,000 viable cells/mL in secondary culture. For mammosphere culture, cells were grown in serum-free mammary epithelial basal medium (MEGM) (Lonza, Inc.) supplemented with B27 (Invitrogen), 20 ng/mL EGF (BD Biosciences), and 1% heparin (Sigma Chemical Co.) in a humidified incubator ([…]: 95% air, 37° C. for 14 days, as previously described (Li et al., 2008).
For orientation: A xenograft is tissue or cells of one species grown in another, often human tumour cells in immunodeficient mice.

Data set [3] deals with SUM159 xenografts. In words: short-term in vivo siRNA (multistage particle) treatment, SUM159 xenograft. Also noted: species or system SCID-Beige mice. To be noted: for tumor volume: SUM159; for secondary MSFE: SUM159 xenograft cells, tumors collected after two weeks; for Aldefluor levels: SUM159 xenografts, reduction not statistically significant. As for the experimental part:
FIG. 9A, FIG. 9B, FIG. 9C, and FIG. 9D show short-term, in vivo treatment in siRNA SUM159 xenografts. Triple-negative breast cancer cell line SUM159 was injected into the mammary fat pad of SCID beige mice (n=9). These tumors were randomized into six groups: 1) vehicle+scrambled siRNA (15 μg, i.v.); 2) vehicle+RPL39 siRNA 15 μg (i.v.); 3) vehicle+MLF2 siRNA (15 μg (i.v.); 4) docetaxel (20 mg/kg, i.p.)+scrambled siRNA 15 μg (i.v.): 5) docetaxel (20 mg/kg, i.p.)+RPL39 siRNA 15 ltg (i.v.), and 6) docetaxel (20 mg/kg, i.p.)+MLF2 siRNA 15 μg (i.v.). […] Data were analyzed by one-way ANOVA, and plotted as mean±SEM for n=9 replicates; *p<0.05;
as §1, §2, §3

For data set [4], the system named is SUM159 tumor. In words: MDS/siRNA by tail vein in SUM159 tumor mice, MSFE of isolated cells. It is filed as in vivo, SCID/Beige mice. Particulars: MDS/siRNA by tail vein injection, cells isolated 3 weeks later. How it is done:
To develop siRNA nanotherapeutics targeting TIC, studies have been conducted to confirm the essential roles of the candidate TIC genes. Exemplary siRNA oligonucleotides specific for STAT3, MFL2, and RPL39L were formulated into nanoliposomes, which were then loaded into porous silicon MSV particles. For in vitro assay, BT549 and SUM159 cells were incubated with MSV/siRNA, and primary and secondary MSFE was measured. […] For in vivo assessment, SCID/Beige mice were inoculated with SUM159 tumor, and treated with MDS/siRNA delivered by tail vein injection. Cells were then isolated from tumor mice 3 weeks later, and MSFE was measured. […] These studies indicate that 1) MDS/siRNA could successfully be delivered to tumor tissues effectively in vivo, 2) uptake of MDS/siRNA by TIC was efficient, and 3) MFL2 and RPL39L were essential genes for TIC.

The mark [5] stands for this setting: siRNA alone (15 μg i.v., MSV) vs vehicle.
Setting [6] is: siRNA+chemotherapy vs standard-dose docetaxel (20 mg/kg).

“MLF2 siRNA: siRNA against myeloid leukemia factor 2; sense SEQ ID NO: 3 CCCTGATGGATCCCTTTGCTAT, antisense SEQ ID NO: 19 ATAGCAAAGGGATCCATCAGGA (packaged in nanoliposomes, chemistry not given here, further chemistry not given here)”: the “lung metastasis (animals with metastasis / animals), IVIS imaging” value in data set [1] is reported as 8/12. For the same substance, the “luminescence (luciferase analysis)” value in data set [1] is “significant reduction”. For the same substance, the tumor volume result in data set [2] (setting [5]) was “Significant reduction”; in data set [2] (setting [6]), “Similarly, observations were obtained”; in data set [3] (setting [5]), “Significant reduction”; in data set [3] (setting [6]), “Similarly, observations were obtained”. Besides, the “secondary MSFE” value in data set [2] and in data set [3] was “Significant decrease” in each case. In addition, the Aldefluor levels result in data set [2] and in data set [3] was “reduction” throughout. Also, the “MSFE of cells isolated from tumor mice” value in data set [4] is on record as “Dramatic reduction”.

As for “RPL39 siRNA: siRNA against ribosomal protein L39-like; sense SEQ ID NO: 15 ACGATTCCTGGCCAAGAAACAA, antisense SEQ ID NO: 31 TTGTTTCTTGGCCAGGAATCGC (listed as DNA, chemistry not fully specified)”, the “lung metastasis (animals with metastasis / animals), IVIS imaging” value in data set [1] is 5/11. In data set [1], the “luminescence (luciferase analysis)” value is given as “significant reduction”. Also, the tumor volume entry in data set [2] (setting [5]) was “Significant reduction”; in data set [2] (setting [6]), “Similarly, observations were obtained”; in data set [3] (setting [5]), “Significant reduction”; in data set [3] (setting [6]), “Similarly, observations were obtained”. Further, the “secondary MSFE” value in data set [2] and in data set [3] was “Significant decrease” throughout. The Aldefluor levels entry in data set [2] and in data set [3] was “reduction” throughout. In data set [4], the “MSFE of cells isolated from tumor mice” value is given as “Dramatic reduction”.

Values taken from US9546367B2, “siRNA compositions and methods for inhibiting gene expression in tumor initiating cells of breast cancer” (priority 2011, dated 2017).
